Reference: PubChem BioAssay (NCI)
Several values for one entry are separate records, joined by “and”; a condition that tells them apart may be missing. Equal values may be shown once.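 1) Cells in 96-well plates. 2) Compound, 48 h, 5 concentrations. 3) Linear interpolation between surrounding doses. 4) Unreached endpoint = highest concentration. The concentration for 50% growth inhibition is given as GI50. At the TGI there is no net growth.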 Where a SMILES comes first, the peptide text is derived from it. [ ]: non-standard residue; d: D form. Phe(F5) = N[CH](Cc1c(F)c(F)c(F)c(F)c1F)C(=O)O

What was measured:
Assay in all cases: NCI-60 cell line screen, 48 h
BT-549 breast = test system: BT-549 breast
OVCAR-3 ovarian = test system: OVCAR-3 ovarian
NCI/ADR-RES ovarian = test system: NCI/ADR-RES ovarian
MALME-3M melanoma = test system: MALME-3M melanoma
DU-145 prostate = test system: DU-145 prostate
CAKI-1 renal = test system: CAKI-1 renal
SF-268 CNS = test system: SF-268 CNS
SNB-78 CNS = test system: SNB-78 CNS
SK-MEL-5 melanoma = test system: SK-MEL-5 melanoma
M19-MEL melanoma = test system: M19-MEL melanoma

C=C(C)[C@@H]1CC=C(CO)CC1 was tested, and the TGI (BT-549 breast) was > 10 µM, the GI50 (OVCAR-3 ovarian) was > 10 µM and the TGI (OVCAR-3 ovarian) was > 10 µM and 736 µM. The TGI (NCI/ADR-RES ovarian) was > 10 µM, the GI50 (MALME-3M melanoma) was > 10 µM and the TGI (MALME-3M melanoma) was > 10 µM and 1080 µM. The TGI (DU-145 prostate) was > 10 µM, the TGI (CAKI-1 renal) was > 10 µM and the GI50 (SF-268 CNS) was > 10 µM. The TGI (SF-268 CNS) was > 10 µM and 709 µM, the TGI (SNB-78 CNS) was 988 µM and the GI50 (SK-MEL-5 melanoma) was > 10 µM. The TGI (SK-MEL-5 melanoma) was > 10 µM and 649 µM and the TGI (M19-MEL melanoma) was 793 µM.
For CC[C@](C)(O)C(=O)O[C@H]1C(=O)O[C@@H]2C[C@H]3C(C)=CC(=O)[C@@H](O)[C@]3(C)[C@H]3[C@@]4(O)OC[C@]32[C@@H]1[C@@H](C)[C@H]4O, the TGI (BT-549 breast) was 6.76 µM, the GI50 (OVCAR-3 ovarian) was 0.387 µM and the TGI (OVCAR-3 ovarian) was 0.502 µM and 1.62 µM. It also gave a GI50 (NCI/ADR-RES ovarian) of 0.036 µM, a GI50 (MALME-3M melanoma) of 0.0337 µM and a TGI (MALME-3M melanoma) of 0.137 µM. The TGI (DU-145 prostate) was 2.9 µM, the GI50 (CAKI-1 renal) was 0.577 µM and 0.158 µM and the TGI (CAKI-1 renal) was 8.8 µM and 1.35 µM. The GI50 (SF-268 CNS) was 0.155 µM, the TGI (SF-268 CNS) was 0.633 µM and 0.226 µM and the GI50 (SNB-78 CNS) was 0.0556 µM. The TGI (SNB-78 CNS) was 0.289 µM and 0.28 µM, the TGI (SK-MEL-5 melanoma) was 0.136 µM and the GI50 (M19-MEL melanoma) was 0.0233 µM. For the same compound, the TGI (M19-MEL melanoma) was 0.0957 µM and 0.069 µM.
For CN(C)c1ccc2c(NCCCCCCNc3ccnc4cc(N(C)C)ccc34)ccnc2c1, the TGI (OVCAR-3 ovarian) was 27.7 µM, the TGI (MALME-3M melanoma) was 12.9 µM and the TGI (CAKI-1 renal) was > 100 µM. For the same compound, the TGI (SF-268 CNS) was > 100 µM, the TGI (SNB-78 CNS) was > 100 µM and the TGI (SK-MEL-5 melanoma) was > 100 µM. For the same compound, the TGI (M19-MEL melanoma) was 95.3 µM.
In the case of CCCC(O)[C@@H](O)c1ccc2c(c1O)C(=O)c1c(OC)cccc1C2=O (stereo not given in full), the TGI (OVCAR-3 ovarian) is reported as > 100 µM, the TGI (MALME-3M melanoma) is reported as 90.3 µM and the TGI (CAKI-1 renal) is reported as > 100 µM. The TGI (SF-268 CNS) was > 100 µM, the TGI (SNB-78 CNS) was 91.1 µM and the TGI (SK-MEL-5 melanoma) was 31.2 µM. The TGI (M19-MEL melanoma) was 61.5 µM.
CCC[CH2][Sn]([CH2]CCC)([O]C(C)=O)[O]C(C)=O gave a GI50 (OVCAR-3 ovarian) of 1.53 µM, a TGI (OVCAR-3 ovarian) of 3.02 µM and a GI50 (MALME-3M melanoma) of 0.994 µM. It also gave a TGI (MALME-3M melanoma) of 2.36 µM, a GI50 (CAKI-1 renal) of 0.638 µM and a TGI (CAKI-1 renal) of 2.23 µM. The GI50 (SF-268 CNS) was 1.23 µM, the TGI (SF-268 CNS) was 4.1 µM and the GI50 (SNB-78 CNS) was 0.511 µM. The TGI (SNB-78 CNS) was 2.33 µM, the GI50 (SK-MEL-5 melanoma) was 1.04 µM and the TGI (SK-MEL-5 melanoma) was 2.4 µM. It also gave a TGI (M19-MEL melanoma) of 5.12 µM.
With COC(=O)C(CC(C)C)NC(=O)C(Cc1cnc[nH]1)NC(=O)CNC(=O)C(NC(=O)C(C)NC(=O)C(Cc1c[nH]c2ccccc12)NC(=O)C(CCC(=O)O)NC(=O)C(N)Cc1c(F)c(F)c(F)c(F)c1F)C(C)C (stereo not given) (H-[Phe(F5)]EWAVGHL-OMe; configuration not given here) the GI50 (OVCAR-3 ovarian) was > 100 µM, the TGI (OVCAR-3 ovarian) was > 100 µM and the TGI (NCI/ADR-RES ovarian) was > 12.5 µM. For the same compound, the TGI (MALME-3M melanoma) was > 12.5 µM, the TGI (DU-145 prostate) was > 12.5 µM and the GI50 (CAKI-1 renal) was > 100 µM. For the same compound, the TGI (CAKI-1 renal) was > 100 µM, the TGI (SF-268 CNS) was > 12.5 µM and the TGI (SNB-78 CNS) was > 100 µM. For the same compound, the TGI (SK-MEL-5 melanoma) was > 12.5 µM and the TGI (M19-MEL melanoma) was > 100 µM.
CC1CC2C(=O)NC(=O)C2c2[nH]c3ccccc3c21 (stereo not given) was tested, and the TGI (OVCAR-3 ovarian) was > 100 µM, the TGI (MALME-3M melanoma) was > 100 µM and the TGI (CAKI-1 renal) was > 100 µM. The TGI (SF-268 CNS) was > 100 µM, the TGI (SNB-78 CNS) was > 100 µM and the TGI (SK-MEL-5 melanoma) was > 100 µM. The TGI (M19-MEL melanoma) was > 100 µM.
